Source: US20120245137A1 (Zalicus Pharmaceuticals Ltd., priority 2009, published 2012)

Assays:
Format in all cases: cell-based
[1] = molecular target: human α1H T-type channels (Homo sapiens, UniProt O95180); experiment: T-type calcium channel block, whole cell patch clamp, α1H; conditions: HEK cells stably expressing human α1H; mainly non-inactivated protocol; values above 10,000 nM represented as 10000
In short: (§1)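 Cells are stable HEK 293 lines carrying human α1G or α1H channels, patched in whole-cell mode. Resting block comes from the non-inactivated pre-pulse; voltage-dependent block from the inactivated protocol.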

[2] = molecular target: human α1G T-type channels (Homo sapiens, UniProt O43497); experiment: T-type calcium channel block, whole cell patch clamp, α1G; conditions: HEK cells stably expressing human α1G; mainly non-inactivated protocol; values above 10,000 nM represented as 10000
Chain of human α1G T-type channels (O43497 whole entry): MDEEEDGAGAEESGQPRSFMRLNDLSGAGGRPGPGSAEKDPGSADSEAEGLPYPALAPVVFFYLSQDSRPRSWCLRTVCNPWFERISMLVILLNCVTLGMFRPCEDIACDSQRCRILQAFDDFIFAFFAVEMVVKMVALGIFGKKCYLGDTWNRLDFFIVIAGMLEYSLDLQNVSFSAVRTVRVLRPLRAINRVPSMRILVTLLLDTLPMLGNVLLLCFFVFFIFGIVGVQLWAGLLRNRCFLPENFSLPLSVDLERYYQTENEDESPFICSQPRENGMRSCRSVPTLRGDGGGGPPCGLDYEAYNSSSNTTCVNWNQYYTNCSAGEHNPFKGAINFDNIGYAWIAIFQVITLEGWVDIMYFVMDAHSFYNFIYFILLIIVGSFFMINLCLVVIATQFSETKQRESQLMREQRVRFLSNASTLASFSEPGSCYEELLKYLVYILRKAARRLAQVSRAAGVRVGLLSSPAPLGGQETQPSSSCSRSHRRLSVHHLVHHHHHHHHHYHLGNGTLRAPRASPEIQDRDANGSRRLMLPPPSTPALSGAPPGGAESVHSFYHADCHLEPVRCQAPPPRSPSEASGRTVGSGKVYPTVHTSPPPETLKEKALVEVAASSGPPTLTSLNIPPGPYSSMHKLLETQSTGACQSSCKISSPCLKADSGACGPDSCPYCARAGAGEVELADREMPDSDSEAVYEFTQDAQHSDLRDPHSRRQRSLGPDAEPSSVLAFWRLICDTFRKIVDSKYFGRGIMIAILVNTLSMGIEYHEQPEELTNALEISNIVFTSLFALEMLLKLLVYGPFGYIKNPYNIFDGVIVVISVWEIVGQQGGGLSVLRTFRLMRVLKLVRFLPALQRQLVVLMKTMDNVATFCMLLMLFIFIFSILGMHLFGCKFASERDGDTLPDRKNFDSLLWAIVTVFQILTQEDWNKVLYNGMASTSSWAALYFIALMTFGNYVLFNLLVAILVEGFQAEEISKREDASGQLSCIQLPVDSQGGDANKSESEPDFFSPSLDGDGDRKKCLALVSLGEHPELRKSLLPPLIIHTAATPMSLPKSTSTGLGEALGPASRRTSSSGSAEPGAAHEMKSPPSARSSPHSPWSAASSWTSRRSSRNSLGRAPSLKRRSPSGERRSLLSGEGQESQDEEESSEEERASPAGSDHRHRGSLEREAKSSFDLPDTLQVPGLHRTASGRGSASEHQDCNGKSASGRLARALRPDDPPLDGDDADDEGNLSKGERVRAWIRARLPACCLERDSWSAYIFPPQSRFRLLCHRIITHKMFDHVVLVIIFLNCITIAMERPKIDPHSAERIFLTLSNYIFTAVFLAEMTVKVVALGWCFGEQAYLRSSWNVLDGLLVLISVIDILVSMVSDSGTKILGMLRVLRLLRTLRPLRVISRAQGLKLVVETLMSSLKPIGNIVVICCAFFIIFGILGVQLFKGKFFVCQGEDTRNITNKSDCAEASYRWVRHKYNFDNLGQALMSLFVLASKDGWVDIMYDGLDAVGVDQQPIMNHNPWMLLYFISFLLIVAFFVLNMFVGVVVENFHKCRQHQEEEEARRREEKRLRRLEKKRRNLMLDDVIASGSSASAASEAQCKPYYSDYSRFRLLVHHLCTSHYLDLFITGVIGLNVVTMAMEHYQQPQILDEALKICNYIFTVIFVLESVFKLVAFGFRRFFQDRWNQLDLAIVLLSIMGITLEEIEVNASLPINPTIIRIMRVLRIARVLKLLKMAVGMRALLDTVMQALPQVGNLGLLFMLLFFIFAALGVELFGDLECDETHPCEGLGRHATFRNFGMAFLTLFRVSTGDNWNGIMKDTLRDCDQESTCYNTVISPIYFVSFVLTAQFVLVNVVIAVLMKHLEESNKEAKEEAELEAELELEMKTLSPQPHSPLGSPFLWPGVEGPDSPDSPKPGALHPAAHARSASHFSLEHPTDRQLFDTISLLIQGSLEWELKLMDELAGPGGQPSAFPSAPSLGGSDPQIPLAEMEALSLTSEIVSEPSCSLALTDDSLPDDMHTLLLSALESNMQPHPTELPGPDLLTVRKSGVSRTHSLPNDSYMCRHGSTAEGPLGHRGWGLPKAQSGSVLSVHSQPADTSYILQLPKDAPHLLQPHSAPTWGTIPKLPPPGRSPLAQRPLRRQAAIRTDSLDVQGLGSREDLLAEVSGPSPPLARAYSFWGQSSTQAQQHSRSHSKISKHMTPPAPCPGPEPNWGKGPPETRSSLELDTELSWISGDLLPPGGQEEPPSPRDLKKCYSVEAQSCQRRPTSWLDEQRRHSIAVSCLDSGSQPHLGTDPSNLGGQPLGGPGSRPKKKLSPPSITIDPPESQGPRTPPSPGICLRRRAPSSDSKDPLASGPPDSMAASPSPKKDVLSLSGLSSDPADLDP
In short: as §1

[3] = molecular target: N-type calcium channel subunits (α1B, α2δ, and β3a) (Homo sapiens, UniProt Q00975); experiment: Block of Cav2.2 channel, whole cell voltage clamp, manual and PatchXpress; conditions: Table 5; table follows Assay Example 3 (whole cell voltage clamp / PatchXpress); assay not given
In short: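 Percent block taken as current amplitude ratio with versus without compound, applied in rising doses; IC50 fitted where one cell received multiple doses. Protocol: 50 ms pulses to +20 mV at 0.067 Hz from […] or −90 mV holding; P/n leak subtraction, no junction-potential correction; manual and PatchXpress recordings.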

Chain of human α1H T-type channels (O95180 whole entry): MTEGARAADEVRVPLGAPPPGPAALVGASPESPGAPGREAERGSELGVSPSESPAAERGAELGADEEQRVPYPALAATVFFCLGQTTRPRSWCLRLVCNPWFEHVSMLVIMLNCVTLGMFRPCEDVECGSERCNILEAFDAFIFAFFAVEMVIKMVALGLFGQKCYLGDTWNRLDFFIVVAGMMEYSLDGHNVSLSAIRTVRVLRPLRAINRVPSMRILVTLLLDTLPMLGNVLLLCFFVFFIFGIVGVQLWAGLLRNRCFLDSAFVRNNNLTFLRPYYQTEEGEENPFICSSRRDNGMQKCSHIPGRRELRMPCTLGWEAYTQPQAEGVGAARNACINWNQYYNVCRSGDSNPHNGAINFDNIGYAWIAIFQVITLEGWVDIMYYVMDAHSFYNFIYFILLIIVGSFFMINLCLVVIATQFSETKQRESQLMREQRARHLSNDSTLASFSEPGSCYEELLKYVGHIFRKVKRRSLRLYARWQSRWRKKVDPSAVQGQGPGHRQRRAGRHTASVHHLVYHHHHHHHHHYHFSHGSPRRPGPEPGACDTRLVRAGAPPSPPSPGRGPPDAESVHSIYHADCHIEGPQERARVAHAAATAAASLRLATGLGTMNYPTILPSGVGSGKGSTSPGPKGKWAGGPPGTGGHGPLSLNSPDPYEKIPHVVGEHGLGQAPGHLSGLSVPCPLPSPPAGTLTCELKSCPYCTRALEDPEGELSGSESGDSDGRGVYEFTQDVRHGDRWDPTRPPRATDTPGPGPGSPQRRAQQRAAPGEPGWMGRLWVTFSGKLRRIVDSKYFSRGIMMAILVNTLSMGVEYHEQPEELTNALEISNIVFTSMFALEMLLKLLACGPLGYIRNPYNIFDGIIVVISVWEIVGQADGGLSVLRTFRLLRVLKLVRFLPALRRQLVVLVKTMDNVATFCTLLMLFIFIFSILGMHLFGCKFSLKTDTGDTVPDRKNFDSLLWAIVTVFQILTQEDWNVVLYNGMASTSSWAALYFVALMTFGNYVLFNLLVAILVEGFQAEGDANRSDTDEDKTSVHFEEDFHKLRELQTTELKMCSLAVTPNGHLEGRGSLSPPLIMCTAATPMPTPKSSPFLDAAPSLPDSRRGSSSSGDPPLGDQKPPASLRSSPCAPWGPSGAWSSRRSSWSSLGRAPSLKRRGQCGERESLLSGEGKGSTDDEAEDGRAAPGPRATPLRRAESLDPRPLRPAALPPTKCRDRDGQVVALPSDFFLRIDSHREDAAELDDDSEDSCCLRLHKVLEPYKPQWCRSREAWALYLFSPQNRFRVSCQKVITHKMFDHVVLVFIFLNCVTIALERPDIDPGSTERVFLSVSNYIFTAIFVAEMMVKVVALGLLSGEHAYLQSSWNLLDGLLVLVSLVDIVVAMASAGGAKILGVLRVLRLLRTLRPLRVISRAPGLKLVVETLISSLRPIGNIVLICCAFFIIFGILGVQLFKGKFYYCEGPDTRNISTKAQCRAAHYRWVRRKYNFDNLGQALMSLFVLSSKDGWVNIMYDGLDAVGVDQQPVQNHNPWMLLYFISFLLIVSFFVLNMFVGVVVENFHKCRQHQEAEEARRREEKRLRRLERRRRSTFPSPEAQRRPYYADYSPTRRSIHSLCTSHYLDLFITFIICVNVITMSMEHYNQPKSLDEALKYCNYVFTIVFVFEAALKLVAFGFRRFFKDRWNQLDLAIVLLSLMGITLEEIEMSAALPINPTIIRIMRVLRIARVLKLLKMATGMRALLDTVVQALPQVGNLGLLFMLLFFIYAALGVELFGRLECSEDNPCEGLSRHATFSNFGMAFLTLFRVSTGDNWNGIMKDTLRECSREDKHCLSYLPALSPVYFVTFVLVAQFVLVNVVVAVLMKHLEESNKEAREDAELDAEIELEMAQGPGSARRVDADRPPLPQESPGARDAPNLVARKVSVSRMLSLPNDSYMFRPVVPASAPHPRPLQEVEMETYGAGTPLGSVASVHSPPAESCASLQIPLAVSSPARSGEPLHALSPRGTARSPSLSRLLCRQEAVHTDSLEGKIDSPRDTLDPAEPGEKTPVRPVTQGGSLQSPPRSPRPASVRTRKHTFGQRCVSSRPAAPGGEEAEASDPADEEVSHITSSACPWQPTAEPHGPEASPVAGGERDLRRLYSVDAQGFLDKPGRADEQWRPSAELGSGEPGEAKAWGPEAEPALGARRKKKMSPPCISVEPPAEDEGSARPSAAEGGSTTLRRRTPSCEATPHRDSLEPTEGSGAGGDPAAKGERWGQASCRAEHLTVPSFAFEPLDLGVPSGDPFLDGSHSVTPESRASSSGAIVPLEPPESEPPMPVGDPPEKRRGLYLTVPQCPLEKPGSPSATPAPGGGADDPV

Compound	IC50 [1] [nM]	IC50 [2] [nM]	IC50 [3] [nM]
O=C(N[C@H]1CC[C@@](F)(S(=O)(=O)c2cccc(C(F)(F)F)c2)CC1)c1nc2cc(C(F)(F)F)ccc2[nH]1 [Compound 85, N-((1S,4S)-4-fluoro-4-(3-(trifluoromethyl)phenylsulfonyl)cyclohexyl)-5-(trifluoromethyl)-1H-benzo[d]imidazole-2-carboxamide]	1230	2150	850
O=C(N[C@H]1CC[C@@](F)(S(=O)(=O)c2cccc(C(F)(F)F)c2)CC1)c1cc(F)cc(Cl)c1 [Compound 86, 3-chloro-5-fluoro-N-((1S,4S)-4-fluoro-4-(3-(trifluoromethyl)phenylsulfonyl)cyclohexyl)benzamide]	1930	> 10000	190
COc1cc(F)cc(C(=O)N[C@H]2CC[C@@](F)(S(=O)(=O)c3cccc(C(F)(F)F)c3)CC2)c1 [Compound 87, 3-fluoro-N-((1S,4S)-4-fluoro-4-(3-(trifluoromethyl)phenylsulfonyl)cyclohexyl)-5-methoxybenzamide]	2100	6440	240
CC1(NC(=O)CN[C@H]2CC[C@@](F)(S(=O)(=O)c3cccc(C(F)(F)F)c3)CC2)CCC1 [Compound 89, 2-((1S,4S)-4-fluoro-4-(3-(trifluoromethyl)phenylsulfonyl)cyclohexylamino)-N-(1-methylcyclobutyl)acetamide]	990	1710	120
CC1(NC(=O)CN[C@H]2CC[C@](F)(S(=O)(=O)c3cccc(C(F)(F)F)c3)CC2)CCC1 [Compound 91, 2-((1R,4R)-4-fluoro-4-(3-(trifluoromethyl)phenylsulfonyl)cyclohexylamino)-N-(1-methylcyclobutyl)acetamide]	940	2450	410
CC1(NC(=O)c2ccc(F)c(C(F)(F)F)c2)CCC(F)(S(=O)(=O)c2cccc(C(F)(F)F)c2)CC1 (stereo not drawn) [Compound 92, 4-fluoro-N-(4-fluoro-1-methyl-4-(3-(trifluoromethyl)phenylsulfonyl)cyclohexyl)-3-(trifluoromethyl)benzamide]	640	2230	330
COc1cc(F)cc(C(=O)NC2(C)CCC(F)(S(=O)(=O)c3cccc(C(F)(F)F)c3)CC2)c1 (stereo not drawn) [Compound 94, 3-fluoro-N-(4-fluoro-1-methyl-4-(3-(trifluoromethyl)phenylsulfonyl)cyclohexyl)-5-methoxybenzamide]	> 10000	> 10000	230
CC(C)(C)NC(=O)CNC1(C)CCC(F)(S(=O)(=O)c2cccc(C(F)(F)F)c2)CC1 (stereo not drawn) [Compound 98, N-tert-butyl-2-(4-fluoro-1-methyl-4-(3-(trifluoromethyl)phenylsulfonyl)cyclohexylamino)acetamide]	> 10000	> 10000	680
O=C(N[C@H]1CC[C@H](CS(=O)(=O)c2cccc(C(F)(F)F)c2)CC1)c1ccc(F)c(C(F)(F)F)c1 [Compound 99, 4-fluoro-3-(trifluoromethyl)-N-((1R,4R)-4-((3-(trifluoromethyl)phenylsulfonyl)methyl)cyclohexyl)benzamide]	> 10000	> 10000	3750
O=C(N[C@H]1CC[C@H](CS(=O)(=O)c2cccc(C(F)(F)F)c2)CC1)c1cc(-c2ccc(F)cc2)n[nH]1 [Compound 108, 3-(4-fluorophenyl)-N-((1R,4R)-4-((3-(trifluoromethyl)phenylsulfonyl)methyl)cyclohexyl)-1H-pyrazole-5-carboxamide]	> 10000	6300	720
O=C(CN[C@H]1CC[C@H](CS(=O)(=O)c2cccc(C(F)(F)F)c2)CC1)NC1CCCCC1 [Compound 118, N-cyclohexyl-2-((1R,4R)-4-((3-(trifluoromethyl)phenylsulfonyl)methyl)cyclohexylamino)acetamide]	> 10000	> 10000	790

More lines, now with the values ahead:

IC50 [1] [nM]	IC50 [2] [nM]	IC50 [3] [nM]	Compound
3030	> 10000	70	CN(C(=O)CN[C@H]1CC[C@@](F)(S(=O)(=O)c2cccc(C(F)(F)F)c2)CC1)C(C)(C)C [Compound 88, N-tert-butyl-2-((1S,4S)-4-fluoro-4-(3-(trifluoromethyl)phenylsulfonyl)cyclohexylamino)-N-methylacetamide]
2150	6970	1640	CC(C)(C)OC(=O)N[C@H]1CC[C@H](S(=O)(=O)c2cccc(C(F)(F)F)c2)CC1 [Compound 95, tert-butyl(1R,4R)-4-(3-(trifluoromethyl)phenylsulfonyl) cyclohexylcarbamate]
3820	> 10000	430	CC(C)(C)OC(=O)N[C@H]1CC[C@@H](S(=O)(=O)c2cccc(C(F)(F)F)c2)CC1 [Compound 96, tert-butyl(1S,4S)-4-(3-(trifluoromethyl)phenylsulfonyl) cyclohexylcarbamate]
> 10000	2140	490	O=C(CNCC1CC(S(=O)(=O)c2cccc(C(F)(F)F)c2)C1)NC1CCCCC1 (stereo not drawn) [Compound 97, N-cyclohexyl-2-((3-(3-(trifluoromethyl)phenylsulfonyl)cyclobutyl)methylamino)acetamide]
1790	5390	2320	COc1cc(F)cc(C(=O)N[C@H]2CC[C@H](CS(=O)(=O)c3cccc(C(F)(F)F)c3)CC2)c1 [Compound 100, 3-fluoro-5-methoxy-N-((1R,4R)-4-((3-(trifluoromethyl)phenylsulfonyl)methyl)cyclohexyl)benzamide]
> 10000	> 10000	630	Cn1nc(C(F)(F)F)cc1C(=O)N[C@H]1CC[C@H](CS(=O)(=O)c2cccc(C(F)(F)F)c2)CC1 [Compound 102, 1-methyl-3-(trifluoromethyl)-N-((1R,4R)-4-((3-(trifluoromethyl)phenylsulfonyl)methyl)cyclohexyl)-1H-pyrazole-5-carboxamide]
> 10000	2180	1940	Cn1cc(C(=O)N[C@H]2CC[C@H](CS(=O)(=O)c3cccc(C(F)(F)F)c3)CC2)c(C(F)(F)F)n1 [Compound 106, 1-methyl-3-(trifluoromethyl)-N-((1R,4R)-4-((3-(trifluoromethyl)phenylsulfonyl)methyl)cyclohexyl)-1H-pyrazole-4-carboxamide]
5350	> 10000	130	O=C(CN[C@H]1CC[C@H](CS(=O)(=O)c2cccc(C(F)(F)F)c2)CC1)NCC(F)(F)F [Compound 113, N-(2,2,2-trifluoroethyl)-2-((1R,4R)-4-((3-(trifluoromethyl)phenylsulfonyl)methyl)cyclohexylamino)acetamide]
> 10000	> 10000	510	CC(C)(C)NC(=O)CN[C@H]1CC[C@H](CS(=O)(=O)c2cccc(C(F)(F)F)c2)CC1 [Compound 114, N-tert-butyl-2-((1R,4R)-4-((3-(trifluoromethyl)phenylsulfonyl)methyl)cyclohexylamino)acetamide]
> 10000	> 10000	650	CN(C(=O)CN[C@H]1CC[C@H](CS(=O)(=O)c2cccc(C(F)(F)F)c2)CC1)C(C)(C)C [Compound 115, N-tert-butyl-N-methyl-2-((1R,4R)-4-((3-(trifluoromethyl)phenylsulfonyl)methyl)cyclohexylamino)acetamide]
4240	8320	2090	CCN(CC)C(=O)CN[C@H]1CC[C@H](CS(=O)(=O)c2cccc(C(F)(F)F)c2)CC1 [Compound 116, N,N-diethyl-2-((1R,4R)-4-((3-(trifluoromethyl)phenylsulfonyl)methyl)cyclohexylamino)acetamide]
2970	2910	900	O=C(N[C@H]1CC[C@H](S(=O)(=O)c2cccc(C(F)(F)F)c2)CC1)c1ccc(Cl)c(C(F)(F)F)c1 [Compound 125, 4-chloro-3-(trifluoromethyl)-N-((1R,4R)-4-(3-(trifluoromethyl)phenylsulfonyl)cyclohexyl)benzamide]
1560	1140	1290	COc1cc(Cl)ccc1C(=O)N[C@H]1CC[C@H](S(=O)(=O)c2cccc(C(F)(F)F)c2)CC1 [Compound 127, 4-chloro-2-methoxy-N-((1R,4R)-4-(3-(trifluoromethyl)phenylsulfonyl)cyclohexyl)benzamide]
940	430	290	O=C(N[C@H]1CC[C@@H](S(=O)(=O)c2cccc(C(F)(F)F)c2)CC1)c1ccc(Cl)c(F)c1 [Compound 130, 4-chloro-3-fluoro-N-((1S,4S)-4-(3-(trifluoromethyl)phenylsulfonyl)cyclohexyl)benzamide]
610	160	160	O=C(N[C@H]1CC[C@@H](S(=O)(=O)c2cccc(C(F)(F)F)c2)CC1)c1ccc(F)c(Cl)c1 [Compound 131, 3-chloro-4-fluoro-N-((1S,4S)-4-(3-(trifluoromethyl)phenylsulfonyl)cyclohexyl)benzamide]
4550	3670	1720	O=C(N[C@H]1CC[C@@H](S(=O)(=O)c2cccc(C(F)(F)F)c2)CC1)c1ccc(Cl)c(C(F)(F)F)c1 [Compound 132, 4-chloro-3-(trifluoromethyl)-N-((1S,4S)-4-(3-(trifluoromethyl)phenylsulfonyl)cyclohexyl)benzamide]
